Measured values taken from US20240261274A1, “TREATMENT OF MYC-DRIVEN CANCERS WITH GSPT1 DEGRADERS” (MONTE ROSA THERAPEUTICS, INC., priority 2021, published 2024).

Columns and labels:
[1] = test system: cells for which cereblon was knocked out; experiment: Viability in cereblon knock-out cells; type: cell-based
Excerpt: X-axis axis represents m concentration of compound 8; y-axis represents viability normalized to DMSO.

GSPT1 [2] = biological target: T1, GSPT1 (Homo sapiens, UniProt P15170+Q96SW2); experiment: GSPT1 levels in breast cancer tumors after compound 8 (western blotting); type: in vivo; parameters: endogenous in cells; conditions: three consecutive doses at 37 and 75 mpk; tumors harvested 24 hr post third dose; MDA-MB-468, MDA-MB-231, MDA-MB-436, CAL51
T1 sequence (P15170 whole entry): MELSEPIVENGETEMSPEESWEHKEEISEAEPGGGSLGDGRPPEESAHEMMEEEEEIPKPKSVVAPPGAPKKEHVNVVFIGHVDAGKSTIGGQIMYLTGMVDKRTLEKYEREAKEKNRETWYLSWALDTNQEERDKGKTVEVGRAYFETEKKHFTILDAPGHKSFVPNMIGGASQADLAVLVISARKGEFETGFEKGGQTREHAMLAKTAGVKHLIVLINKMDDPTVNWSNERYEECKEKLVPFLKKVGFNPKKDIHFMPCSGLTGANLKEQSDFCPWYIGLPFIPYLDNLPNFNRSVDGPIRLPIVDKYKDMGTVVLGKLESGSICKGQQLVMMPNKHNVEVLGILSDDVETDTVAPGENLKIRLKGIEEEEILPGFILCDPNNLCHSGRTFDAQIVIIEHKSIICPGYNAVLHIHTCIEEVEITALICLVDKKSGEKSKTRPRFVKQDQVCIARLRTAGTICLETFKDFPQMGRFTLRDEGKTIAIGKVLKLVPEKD
T1 sequence (Q96SW2 whole entry): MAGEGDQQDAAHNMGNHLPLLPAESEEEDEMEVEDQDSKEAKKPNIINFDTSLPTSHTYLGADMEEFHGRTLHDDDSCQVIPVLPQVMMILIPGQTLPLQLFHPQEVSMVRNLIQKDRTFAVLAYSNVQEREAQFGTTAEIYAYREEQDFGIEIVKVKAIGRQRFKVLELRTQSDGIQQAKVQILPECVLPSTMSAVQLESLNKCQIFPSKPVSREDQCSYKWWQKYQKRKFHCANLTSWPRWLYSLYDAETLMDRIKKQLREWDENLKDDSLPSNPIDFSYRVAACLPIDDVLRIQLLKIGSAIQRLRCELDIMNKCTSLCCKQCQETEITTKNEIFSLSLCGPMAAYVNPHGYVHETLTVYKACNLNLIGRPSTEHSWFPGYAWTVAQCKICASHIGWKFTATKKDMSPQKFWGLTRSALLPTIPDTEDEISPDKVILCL
T1 sequence (Q16531 whole entry partner): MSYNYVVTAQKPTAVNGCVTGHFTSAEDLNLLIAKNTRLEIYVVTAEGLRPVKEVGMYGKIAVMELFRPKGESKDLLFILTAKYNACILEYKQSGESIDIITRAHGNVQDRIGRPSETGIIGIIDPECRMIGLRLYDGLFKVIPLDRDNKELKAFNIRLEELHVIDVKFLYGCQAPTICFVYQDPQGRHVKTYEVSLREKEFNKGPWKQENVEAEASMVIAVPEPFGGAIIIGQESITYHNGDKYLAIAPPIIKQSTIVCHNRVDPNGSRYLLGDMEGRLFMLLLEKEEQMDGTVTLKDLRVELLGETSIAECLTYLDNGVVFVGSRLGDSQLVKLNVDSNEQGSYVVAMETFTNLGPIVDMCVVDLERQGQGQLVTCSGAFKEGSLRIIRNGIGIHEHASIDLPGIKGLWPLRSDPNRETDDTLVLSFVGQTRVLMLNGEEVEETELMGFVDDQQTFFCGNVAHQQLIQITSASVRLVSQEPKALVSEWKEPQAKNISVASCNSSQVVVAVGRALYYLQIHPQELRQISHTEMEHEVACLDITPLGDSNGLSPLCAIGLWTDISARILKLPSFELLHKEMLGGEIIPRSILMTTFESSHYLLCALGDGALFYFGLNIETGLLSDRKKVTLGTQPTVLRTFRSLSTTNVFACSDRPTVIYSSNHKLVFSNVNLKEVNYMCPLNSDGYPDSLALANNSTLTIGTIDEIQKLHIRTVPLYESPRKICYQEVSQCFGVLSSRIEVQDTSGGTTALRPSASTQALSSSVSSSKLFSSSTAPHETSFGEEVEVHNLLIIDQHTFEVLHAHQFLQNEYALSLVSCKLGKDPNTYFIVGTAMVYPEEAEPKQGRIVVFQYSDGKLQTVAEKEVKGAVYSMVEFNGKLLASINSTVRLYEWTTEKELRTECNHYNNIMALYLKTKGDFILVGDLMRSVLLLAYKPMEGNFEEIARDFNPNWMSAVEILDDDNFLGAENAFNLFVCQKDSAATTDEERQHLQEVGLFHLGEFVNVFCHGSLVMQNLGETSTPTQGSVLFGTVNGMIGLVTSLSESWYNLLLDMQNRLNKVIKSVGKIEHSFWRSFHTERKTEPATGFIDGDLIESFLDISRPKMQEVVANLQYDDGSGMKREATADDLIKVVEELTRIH
Experimental: Representative examples below show the levels of GSPT1 in MDA-MB-468 (ATCC HTB-132), MDA-MB-231 (ATCC HTB-26), MDA-MB-436 (ATCC HTB-130) and CAL51 (DSMZ-ACC-302) tumors (in lanes from top down as indicated) following three consecutive doses of compound 8 at 37 (right panel) and 75 mpk (middle panel) or administration of vehicle only (left panel). GADPH levels as control is shown in the lowest lane. Tumors were harvested 24 hr post third dose and levels of GSPT1 were determined by western blotting as indicated. Tumors were collected from the in vivo efficacy studies described in the previous FIG. 7A.

GSPT1 [3] = biological target: T1, GSPT1; experiment: GSPT1 levels in NCI-H1155 tumors by western blotting (compound 210); type: in vivo, mice; parameters: from tissue; host or cells: NCI-H1155 subcutaneous xenograft tumours from BALB/c nude mice; conditions: all three dose levels, 6 hours after the third dose
Experimental: GSPT1 levels in tumors were determined by western blotting 6 hours after the third dose. Western blotting was performed as described previously using GAPDH as loading control.

MM1S cell line = experiment: Caspase 3/7 apoptosis Glo assay in MM1S; type: cell-based; conditions: 48 hr treatment
GSPT1 [4] = biological target: T1, GSPT1; experiment: GSPT1 levels in NCI-H1155 tumors (Compound 345); type: in vivo, mice; parameters: from tissue; host or cells: NCI-H1155 subcutaneous xenograft tumours from BALB/c nude mice; conditions: day 5, 1 mg/kg and 10 mg/kg, strongest effect at 10 mg/kg
Experimental: Additionally, plasma concentrations of Compound 345 and levels of GSPT1 and […] (relative to vehicle-only control) were measured in a time-course experiment on day 5 for the animals receiving 1 mg/kg and 10 mg/kg.
GSPT1 and N-Myc western blotting analyses from NCI-H1155 tumors: The NCI-H1155 model was run as described previously and tumors were harvested following 5 consecutive daily PO doses of Compound 345 at 1.0 and 10 mg/kg. Tumors were lysed in 1× lysis buffer (CST, Cat. No. 9803, Lot No. 0000122383) supplemented with protease (Sigma, Cat. No. P8340) and phosphatase ((Sigma, Cat. No. P5726 and P0044) cocktail inhibitors using TissueLyser II (QIAGEN #85300). Samples were spined at 15,000 rpm in an Eppendorf microfuge for 15 min at 4° C. The protein supernatant was collected in a new 1.5 ml tube and the protein concentrations were determined by the Pierce BCA kit (Thermo, Cat. No. 23225). The tumor lysate samples were mixed with 5×SDS-PAGE loading buffer boiled for 5 min and brought to ice for 5 min. 30 μg of protein was loaded onto a NUPAGE 4-12% BT gel (Invitrogen, Cat. No. NPO336BOX) for separation. […] Membranes were imaged on the Odyssey imager (Li-COR) using fluorescence or cheminulinescence detection. […] Data are expressed as mean±SEM derived from at least three different mice and collected at 0, 2, 6, 12, 24, 48, 72 and 96 hr as indicated.

SMILES: Cc1ccc(NC(=O)NCc2ccc3c(c2)C(=O)N(C2CCC(=O)NC2=O)C3)cc1Cl (centres unmarked) [Compound 8]
- induction of death (viability normalized to DMSO) [1]: did not induce death
- GSPT1 levels in tumors (GSPT1 [2]): robust and dose-dependent degradation of GSPT1 levels in tumors

SMILES: Cc1ccc(NC(=O)OCc2ccc3c(c2)C(=O)N(C2CCC(=O)NC2=O)C3)cc1Cl (centres unmarked) [Compound 210]
- GSPT1 degradation in tumors (GSPT1 [3]): Complete degradation of GSPT1

SMILES: O=C1CCC(N2Cc3ccc(COC(=O)Nc4cc(OC(F)(F)F)ccc4F)cc3C2=O)C(=O)N1 (centres unmarked) [Compound 345, (2-(2,6-dioxopiperidin-3-yl)-3-oxoisoindolin-5-yl)methyl(2-fluoro-5-(trifluoromethoxy)phenyl)carbamate]
- apoptosis (Caspase 3/7) (MM1S cell line): Apoptosis induction
- GSPT1 level relative to vehicle-only control (GSPT1 [4]): substantially reduced
